The results in this text go back to patent publication US20050261342A1, “Metabolites of (+)-(2S,3S)-3(2-methoxy-5- trifluoromethoxybenzylamino)-2-phenyl-piperidine” (Pfizer Inc., priority 2004, published 2005).

A short description of the data set: Profiling and quantitative assessment of radiolabelled metabolites in human subjects after a single oral dose of [14C]-(+)-(2S, 3S)-3-(2-methoxy-5-trifluoromethoxybenzylamino)-2-phenyl-piperidine. Format: in vivo. The note with it: single 30 mg (free base) oral dose of [14C] parent compound, HPLC radioprofiling of pooled serum (1-24 h). The method, then: Six healthy male human subjects (4 extensive metabolizers (EM) of CYP2D6 and 2 poor metabolizers (PM) of CYP2D6) were administered in a single 30 mg (free base) oral dose of (+)-(2S, 3S)-3-(2-methoxy-5-trifluoromethoxybenzylamino)-2-phenyl-piperidine containing 100 *Ci of [14C]-(+)-(2S, 3S)-3-(2-methoxy-5-trifluoromethoxybenzylamino)-2-phenyl-piperidine (Lot # 49800-59-3, specific activity 1.22 mCi/mmol, radio purity of >99%). Blood samples were collected into red-top tubes (no preservatives or anticoagulant or serum separator) at the following time points: 1, 4, 8, 12, and 24 hours post dose. The blood samples were centrifuged at 4° C. and serum was transferred to clean tubes.
a) Serum samples were pooled by human subject separately (3 ml from each sampling time, total of 15 ml) and aliquots of 1.5 mL from each pool were extracted with 5 mL of acetonitrile. The mixtures were vortex mixed for 5 minutes and centrifuged at 3500 rpm for 5 minutes to remove the precipitated proteins. Supernatants were combined and a small aliquot of supernatant was counted. Approximately 96% (average of all subjects) of the radioactivity was recovered in the supernatant. The supernatants were evaporated under N^2 in a turbovap at room temperature. […]
Measuring the radioactivity in the individual peaks separated on the HPLC column using a -RAM detector allowed the quantification of each metabolite. […]

Regarding `O=C(O)c1cc(OC(F)(F)F)ccc1O` [5-trifluoromethoxy salicylic acid, 2-Hydroxy-5-trifluoromethoxy-benzoic acid], the “accounted for % of the total radioactivity” value by setting is: (EM subjects (extensive metabolizers of CYP2D6)) “approximately 56%”; (PM subjects (poor metabolizers of CYP2D6)) roughly 29%.
